Key:
[1] = test system: IL-2 expression in Jurkat (E6-1) cells; assay: IL-2 expression assay (down-stream MALT1 activity, Jurkat E6-1); format: cell-based; conditions: Homo sapiens; Jurkat E6-1, PMA/Ionomycin stimulation, 24 hours
Protocol: Down-stream MALT1 activity was measured by PMA/lonomycin-induced expression of IL-2 in Jurkat (E6-1) cells. Compounds were distributed in a 96 well plate, 8-point concentration series, 1:3 dilution. Jurkat clone E6-1, 4×10^4 cells/well, were added, and stimulated by PMA/lonomycin (1:500 dilution) for 24 hours at 37° C. Measurement was performed using a MesoScale Sector S600 with the Human IL-2 Tissue Culture kit according to the manufacturers recommendation.

[2] = test system: MB49 mouse bladder cancer; assay: MB49 mouse bladder cancer model, Treg and Teff cells by flow cytometry; format: in vivo; conditions: C57BL/6 mice
Protocol: Evaluation of Treg and Teff cell numbers was performed by flow cytometry. From a tumour sample (resected piece or biopsy), tumour cells and TILs are dispersed into single cell suspension. Cells are then washed with PBS and stained by antibodies. Samples were stained with antibodies to identify T-cell subpopulations; CD3-BV421 (Biolegend 100228), CD8-FITC (Biolegend 100706), CD4-PE (Biolegend 116005), CD25-PerCP Cy5.5 (Biolegend 101912, clone 3C7), for 15 minutes at room temperature, followed by addition of erythrocyte lysis buffer (cat no. 349202, BD BioSciences, Franklin Lakes, N.J., USA) for 8 minutes. Cells were permeabilized with FoxP3 fix/Perm (cat no. 421401, Biolegend San Diego, Calif., USA), washed with FoxP3 Perm buffer (Cat no. 421402, Biolegend) and stained with an Alexa Fluor® 647 labelled FoxP3 antibody (Cat no. 320013, Biolegend) according to the manufacturer's instructions. The cells were washed twice in PBS with 1% BSA and analyzed on a FACSCanto II (BD Biosciences). Data analysis was performed using FlowJo software (TreeStar, Ashland, Oreg., USA). For intracellular staining of cytokines, inclusion of transport inhibitors e.g. Monensin or Brefeldin A.
The murine bladder urothelial carcinoma cell line Mouse Bladder (MB)-49 is a C57BL/6-derived cell line cultured at 37 C and 5% CO2 in DMEM+GlutaMax supplemented with 10% FBS, 0.1 mM sodium pyruvate, 100 U/ml Penicillin-Streptomycin. For determining the effects of MALT1 inhibitor on the presence of T-effector and T-regulatory cells in vivo, 3×10^5 MB49 cells were injected s.c. on the right flank of female C57BL/6 mice. […] As reference 200 μg of anti-CD25 antibody (clone PC61) in 100 μL PBS was administered i.v. on day 8 and 11. The levels of Treg and Teff cells were analyzed by flow cytometry in the tumour (T) and in tumour-draining lymph nodes (TDLN) on day 12.

[3] = test system: CMV-specific (NLV+) CD8+ Teff cells expressing IFNγ or TNFα; assay: Human whole blood stimulated with (MTTE)3-CMV vaccine; format: cell-based; conditions: 4 μM with 120 nM (MTTE)3-CMV vaccine, 6 hours, three donors
Protocol: Freshly drawn whole blood from healthy volunteers (2 mL) in a tube was incubated under rotation at 37° C. for 6 hours. […]. After 2 hours Brefeldin-A was added to allow intra-cellular analysis of cytokines (IFNγ and TNFα) by flow-cytometry. Antigen-specific CD8+ T-cells were identified by fluorescence-conjugated tetrameric complexes of HLA-A2 molecules loaded with the NLV peptide epitope ([…]) of CMV pp65.

[4] = test system: panel of human cancer cell lines; assay: Human cancer cell line panel (Oncolead), GI50, 72 hours; format: cell-based
[5] = test system: Treg suppression of CD4+CD25- effector T cell proliferation; assay: Treg suppressive activity (suppression of CD4+CD25- effector T cell proliferation); format: cell-based, human
Protocol: PBMC were isolated from fresh blood by differential density centrifugation using Ficoll-PLUS (GE Healthcare). Cells were washed three times in RPMI+1% heat-inactivated foetal calf serum (HI-FCS)+1% penicillin/streptomycin (P/S) (1% RPMI), then resuspended in PBS+2% heat inactivated foetal calf serum (HI-FCS)+2.0 mM EDTA (isolation buffer). CD4+CD25- and CD4+CD25+ T cells were isolated, per the manufacturer's instructions (Miltenyi CD4+CD25+ Regulatory T cell Isolation Kit, human). Isolated CD4+CD25− T cells were then labeled with Cell Proliferation Dye eFluor® 450 per manufacturer's instructions (eBioscience). An aliquot of cells was stained with anti-CD3 and anti-CD4 (BioLegend and eBioscience) to assess cell purity and dye labeling by flow cytometry. Cultures were plated in cRPMI, with […] CD4+CD25− cells per well. […]
FIG. 2. The proliferation of CD4+CD25− T cells, purified from a different donor and labelled with Cell Proliferation Dye eFluor® 450, was assessed following a 4 day activation with anti-CD3/CD28 beads. There was a robust proliferation of the cells, and they were readily distinguished from unlabeled cultured cells (generated in the 10 day culture period).
The number of proliferating CD4+CD25− “effector” T cells was determined at each ratio (1:4, 1:2, 1:1) of these cells to the cultured cells generated in the previous 10 day culture period (cultured “Treg”). […]

[6] = p.o. once daily day 8-11, two doses, analysed day 12

CO[C@@H](C)c1c(NC(=O)Nc2cnc(-n3nccn3)c(Cl)c2)cnc2cc(Cl)nn12 [Example 2, (S)-1-(5-chloro-6-(2H-1,2,3-triazol-2-yl)pyridin-3-yl)-3-(2-chloro-7-(1-methoxyethyl)pyrazolo[1,5-a]pyrimidin-6-yl)urea]
IC50 [1]: 0.01 µM | amount of CD8/CD25 double positive cells (Teff) in TDLN ([2]; p.o. once daily day 8-11, analysed day 12): not reduced | percentage of FOXP3 positive cells (Treg) out of CD3/CD4 double positive cells in tumour [2, 6]: reduced, in a dose-dependent manner | percentage of FOXP3 positive cells (Treg) out of CD3/CD4 double positive cells in tumour-draining lymph nodes [2, 6]: reduced, in a dose-dependent manner | percentage of activated antigen-specific IFNγ+ and TNFα+ CD8+ T cells [3]: increase | antiproliferative effect on the majority of cell lines tested ([4]; 81 solid and 12 hematological cancer cell lines, 50 μM to 0.05 nM): essentially no antiproliferative effect | GI50 ([4]; Homo sapiens, WSU-NHL cell line, not confirmed in follow-up assay): < 1 µM | Treg suppression of effector cell proliferation, donor 1 ([5]; donor 1, 0.4 μM, 0.4 μM and 4.0 μM): reduced | Treg suppression of proliferation of responding effector T cells, donors 2 and 3 ([5]; donors 2 and 3, increasing concentrations): reduced by increasing concentrations
